We go through two molecules from patent US20060142319A1, “Pyridyl-substituted spiro-hydantoin crystalline forms and process” (priority 2004, published 2006).

One series concerns the target CYP 2C19 (Homo sapiens, UniProt P33261). In words: CYP assay. The series is classed as in vitro ADME. The following applies: CYP assay per Drug Metabolism and Disposition 28, 1440-1448 (2000). The method, then:
The CYP assay was conducted according to the procedure in Drug Metabolism and Disposition, 28, 1440-1448 (2000).

A short description of series [1]: Microsomal liver assay (rate of oxidative metabolism). The series is classed as in vitro ADME. Conditions: human liver microsomes; 3 μM test compound, 1 mg/mL microsomal proteins, NADPH, 37° C. As to the method:
Mouse and rat liver microsomes were purchased from XenoTech LLC (Kansas City, Kans.), and human liver microsomes were obtained from BD Gentest (Woburn, Mass.).
The oxidative metabolism in liver microsomes of various species was studied under the following condition: 3 μM test compound (organic solvent content <0.1%), 1 mg/mL microsomal proteins, 1 mM β-nicotinamide adenine dinucleotide phosphase (β-NADPH), 100 mM phosphate buffer (pH 7.4), and 6.7 mM magnesium chloride. The reaction (n=3) was initiated by the addition of NADPH followed by incubation at 37° C. for 20 min. Aliquots of samples (0.1 mL) were taken at 0, 5, and 20 min, and the reaction was quenched by the addition of three volumes of acetonitrile. Samples were stored at −20° C. until analysis.
The rate of oxidation in liver microsomes was determined from the following equation: rate (nmol/min/mg protein)=k*C0/Cprotein, where k (1/min) is the turnover rate constant estimated from non-linear regression of the percent compound remaining (y)-time (t) curve using the equation y=y0*exp(−k*t); C0 is initial drug concentration (μM), and Cprotein is microsomal protein concentration (mg/mL).
Rates of metabolism are “binned” (classified) as follows: […]

Sequence of CYP 2C19 (P33261 whole entry): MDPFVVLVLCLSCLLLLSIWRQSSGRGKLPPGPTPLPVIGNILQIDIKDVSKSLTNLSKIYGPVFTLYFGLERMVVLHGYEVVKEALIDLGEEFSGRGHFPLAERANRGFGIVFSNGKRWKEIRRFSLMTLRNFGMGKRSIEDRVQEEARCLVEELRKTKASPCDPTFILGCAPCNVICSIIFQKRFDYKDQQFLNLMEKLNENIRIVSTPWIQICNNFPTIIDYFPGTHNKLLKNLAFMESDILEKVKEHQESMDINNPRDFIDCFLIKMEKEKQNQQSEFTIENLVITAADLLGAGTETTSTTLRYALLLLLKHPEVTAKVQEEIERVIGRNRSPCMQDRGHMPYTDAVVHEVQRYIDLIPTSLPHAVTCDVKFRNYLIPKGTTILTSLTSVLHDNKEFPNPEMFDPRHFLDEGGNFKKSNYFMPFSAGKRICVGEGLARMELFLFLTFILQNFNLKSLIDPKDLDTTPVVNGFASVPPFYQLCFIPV

As a reminder, the IC50 is the concentration that gives 50% inhibition. A low value points to inhibition by little substance. On to `CN1C(=O)N(c2cc(Cl)cc(Cl)c2)C(=O)[C@]12CN(c1ccccn1)C[C@H]2c1ccc(C#N)cc1` (relative stereo) [4-[(5S*,9R*)-3-(3,5-dichlorophenyl)-1-methyl-2,4-dioxo-7-pyridin-2-yl-1,3,7-triazaspiro[4.4]non-9-yl]-benzonitrile], for which the IC50 on CYP 2C19 was 0.11 µM. The molecule further registered a rate of metabolism in series [1] of 0.2 nmol/min/mg.

On CYP 2C19, `CN1C(=O)N(c2cc(Cl)cc(Cl)c2)C(=O)[C@]12CN(c1ccc(C(=O)O)cn1)C[C@H]2c1ccc(C#N)cc1` [IId, 6-[(5S,9R)-9-(4-cyanophenyl)-3-(3,5-dichlorophenyl)-1-methyl-2,4-dioxo-1,3,7-triazaspiro[4.4]non-7-yl]nicotinic acid] registered an IC50 of 38.2 ± 2.22 µM. For the same molecule, in series [1], the rate of metabolism amounted to 0.01 ± 0.01 nmol/min/mg.
